Patent US10259810B2, “N-sulfonylated pyrazolo[3,4-b]pyridin-6-carboxamides and method of use” (AbbVie S.à.r.l., priority 2015, dated 2019)

Key:
[1] = biological target: T1, ΔF508-CFTR (Homo sapiens, UniProt P13569, DEL508-508); test: CFTR cell surface levels using HRP-tagged ΔF508-CFTR expressing CFBE cells, in the presence of a co-corrector; format: cell-based; settings: HRP-tagged ΔF508-CFTR CFBE cells, in the presence of 3 μM co-corrector; for EC50: read-out: EC50
T1 construct: host or cells: CFBE41o-, doxycycline-inducible
Outline: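 Chemiluminescent read-out of surface HRP (15 min, dark) after PBS washes. Activity is normalized as 100×(sample−DMSO)/(3 μM co-corrector alone−DMSO).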

[2] = biological target: T1, ΔF508-CFTR; test: CFTR cell surface levels using HRP-tagged ΔF508-CFTR expressing CFBE cells, intrinsic corrector capacity; format: cell-based; parameters: % Activation: concentration or dose not given beside the values; settings: HRP-tagged ΔF508-CFTR expressing CFBE41o- cells, compound alone (intrinsic corrector capacity), 20 hours at 33° C.; for EC50: read-out: EC50
Outline: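 Read-out: chemiluminescent HRP activity of ECL4-HRP-tagged ΔF508-CFTR at the cell surface, 15 min substrate in dark. Normalized as 100×(sample−DMSO)/(positive control−DMSO).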

T1 sequence (P13569 with tags, fused parts or gaps DEL508-508): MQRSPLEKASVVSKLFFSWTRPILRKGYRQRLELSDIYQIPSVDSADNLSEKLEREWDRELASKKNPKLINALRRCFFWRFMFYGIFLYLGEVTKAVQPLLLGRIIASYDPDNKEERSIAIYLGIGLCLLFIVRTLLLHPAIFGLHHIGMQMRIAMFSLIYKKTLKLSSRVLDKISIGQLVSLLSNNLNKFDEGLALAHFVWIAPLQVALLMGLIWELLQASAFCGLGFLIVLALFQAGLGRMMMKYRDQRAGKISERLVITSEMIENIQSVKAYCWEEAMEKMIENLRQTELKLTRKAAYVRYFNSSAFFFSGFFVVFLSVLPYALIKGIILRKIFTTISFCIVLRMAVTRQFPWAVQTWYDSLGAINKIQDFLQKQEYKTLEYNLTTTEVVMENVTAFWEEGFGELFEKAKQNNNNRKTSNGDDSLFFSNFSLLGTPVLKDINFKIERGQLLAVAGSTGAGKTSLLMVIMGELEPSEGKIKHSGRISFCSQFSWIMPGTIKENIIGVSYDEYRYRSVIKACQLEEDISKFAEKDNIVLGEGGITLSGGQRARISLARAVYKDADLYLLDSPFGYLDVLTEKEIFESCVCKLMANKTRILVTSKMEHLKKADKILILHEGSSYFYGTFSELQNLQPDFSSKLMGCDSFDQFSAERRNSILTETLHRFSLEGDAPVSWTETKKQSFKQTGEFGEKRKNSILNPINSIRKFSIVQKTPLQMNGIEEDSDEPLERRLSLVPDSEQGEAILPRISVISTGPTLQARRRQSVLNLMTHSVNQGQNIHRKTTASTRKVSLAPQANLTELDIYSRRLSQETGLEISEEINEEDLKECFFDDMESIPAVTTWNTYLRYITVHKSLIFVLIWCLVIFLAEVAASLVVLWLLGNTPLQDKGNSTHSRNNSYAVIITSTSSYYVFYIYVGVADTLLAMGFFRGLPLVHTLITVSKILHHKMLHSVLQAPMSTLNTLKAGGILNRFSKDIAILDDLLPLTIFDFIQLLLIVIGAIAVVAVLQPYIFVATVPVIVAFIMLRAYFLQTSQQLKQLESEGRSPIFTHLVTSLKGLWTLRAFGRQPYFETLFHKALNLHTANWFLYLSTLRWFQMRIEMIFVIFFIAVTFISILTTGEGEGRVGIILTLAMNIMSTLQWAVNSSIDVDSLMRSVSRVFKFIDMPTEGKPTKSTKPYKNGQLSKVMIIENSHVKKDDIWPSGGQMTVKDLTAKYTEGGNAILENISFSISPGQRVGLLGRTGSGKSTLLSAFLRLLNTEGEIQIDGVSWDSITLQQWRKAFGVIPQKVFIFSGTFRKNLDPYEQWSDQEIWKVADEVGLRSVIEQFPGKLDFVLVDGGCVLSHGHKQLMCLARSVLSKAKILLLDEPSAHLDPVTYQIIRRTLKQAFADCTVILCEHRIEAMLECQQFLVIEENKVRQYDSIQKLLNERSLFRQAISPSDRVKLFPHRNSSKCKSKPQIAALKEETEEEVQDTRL

Compound | % Activation [1] [%] | EC50 [1] [nM] | % Activation [2] [%] | EC50 [2] [nM]
CCS(=O)(=O)NC(=O)c1cc(-c2ccc(N3CC(N(C)C)C3)cc2)c2c(C)nn(-c3ccccc3)c2n1 [Compound 42, 4-{4-[3-(dimethylamino)azetidin-1-yl]phenyl}-N-(ethanesulfonyl)-3-methyl-1-phenyl-1H-pyrazolo[3,4-b]pyridine-6-carboxamide] | 226.3 | 378 | 45.225 | 2120
CC(C)c1nn(-c2cccc(N3CC(C)(C)C3)c2)c2nc(C(=O)NS(C)(=O)=O)cc(-c3ccc(N4CCOCC4)cc3)c12 [Compound 43, 1-[3-(3,3-dimethylazetidin-1-yl)phenyl]-N-(methanesulfonyl)-4-[4-(morpholin-4-yl)phenyl]-3-(propan-2-yl)-1H-pyrazolo[3,4-b]pyridine-6-carboxamide] | 627 | 289 | 379.67 | 299
CC(C)c1nn(C2CCCCC2)c2nc(C(=O)NS(C)(=O)=O)cc(-c3ccc(N4CCOCC4)nc3)c12 [Compound 44, 1-cyclohexyl-N-(methanesulfonyl)-4-[6-(morpholin-4-yl)pyridin-3-yl]-3-(propan-2-yl)-1H-pyrazolo[3,4-b]pyridine-6-carboxamide] | 412.63 | 276 | 203.87 | 404
CCS(=O)(=O)NC(=O)c1cc(-c2ccc(N3CCOCC3)cc2)c2c(C(C)C)nn(C3CCCCC3)c2n1 [Compound 45, 1-cyclohexyl-N-(ethanesulfonyl)-4-[4-(morpholin-4-yl)phenyl]-3-(propan-2-yl)-1H-pyrazolo[3,4-b]pyridine-6-carboxamide] | 438.4 | 203 | 210.97 | 327
CC(C)c1nn(-c2cccc(N3CCC(F)C3)c2)c2nc(C(=O)NS(C)(=O)=O)cc(-c3ccc(N4CCOCC4)cc3)c12 (stereo not drawn) [Compound 46, 1-[3-(3-fluoropyrrolidin-1-yl)phenyl]-N-(methanesulfonyl)-4-[4-(morpholin-4-yl)phenyl]-3-(propan-2-yl)-1H-pyrazolo[3,4-b]pyridine-6-carboxamide] | 643.27 | 446 | 457.3 | 706
Cc1nn(C2CCCCC2)c2nc(C(=O)NS(C)(=O)=O)cc(-c3ccc(N4CCOCC4)nc3)c12 [Compound 47, 1-cyclohexyl-N-(methanesulfonyl)-3-methyl-4-[6-(morpholin-4-yl)pyridin-3-yl]-1H-pyrazolo[3,4-b]pyridine-6-carboxamide] | 408.77 | 1600 | 169.73 | 1860
CCS(=O)(=O)NC(=O)c1cc(-c2ccc(N3CCOCC3)nc2)c2c(C)nn(C3CCCCC3)c2n1 [Compound 48, 1-cyclohexyl-N-(ethanesulfonyl)-3-methyl-4-[6-(morpholin-4-yl)pyridin-3-yl]-1H-pyrazolo[3,4-b]pyridine-6-carboxamide] | 417.8 | 1150 | 160.9 | 1200
Cc1nn(C2CCCCC2)c2nc(C(=O)NS(C)(=O)=O)cc(-c3cnc(N(C)C)nc3)c12 [Compound 49, 1-cyclohexyl-4-[2-(dimethylamino)pyrimidin-5-yl]-N-(methanesulfonyl)-3-methyl-1H-pyrazolo[3,4-b]pyridine-6-carboxamide] | 338 | 2000 | 115.3 | 2570
CCS(=O)(=O)NC(=O)c1cc(-c2cnc(N(C)C)nc2)c2c(C)nn(C3CCCCC3)c2n1 [Compound 50, 1-cyclohexyl-4-[2-(dimethylamino)pyrimidin-5-yl]-N-(ethanesulfonyl)-3-methyl-1H-pyrazolo[3,4-b]pyridine-6-carboxamide] | 300 | 1080 | 109.8 | 1680
CC(C)c1nn(C2CCCCC2)c2nc(C(=O)NS(C)(=O)=O)cc(-c3ccc(N(C)C4CCOCC4)nc3)c12 [Compound 51, 1-cyclohexyl-N-(methanesulfonyl)-4-{6-[methyl(oxan-4-yl)amino]pyridin-3-yl}-3-(propan-2-yl)-1H-pyrazolo[3,4-b]pyridine-6-carboxamide] | 420.67 | 312 | 172.4 | 457
CCS(=O)(=O)NC(=O)c1cc(-c2cnc(N(C)C)nc2)c2c(C3CN(C(=O)OC)C3)nn(C3CCCCC3)c2n1 [Compound 52, methyl 3-{1-cyclohexyl-4-[2-(dimethylamino)pyrimidin-5-yl]-6-[(ethanesulfonyl)carbamoyl]-1H-pyrazolo[3,4-b]pyridin-3-yl}azetidine-1-carboxylate] | 257.85 | 992 | 75.755 | 1150
CC(C)c1nn(-c2cccc(N(C)C)c2)c2nc(C(=O)NS(C)(=O)=O)cc(-c3ccc(N4CCOCC4)nc3)c12 [Compound 53, 1-[3-(dimethylamino)phenyl]-N-(methanesulfonyl)-4-[6-(morpholin-4-yl)pyridin-3-yl]-3-(propan-2-yl)-1H-pyrazolo[3,4-b]pyridine-6-carboxamide] | 572.78 | 647 | 376.8 | 671
CCS(=O)(=O)NC(=O)c1cc(-c2ccc(N3CCOCC3)nc2)c2c(C(C)C)nn(-c3cccc(N(C)C)c3)c2n1 [Compound 54, 1-[3-(dimethylamino)phenyl]-N-(ethanesulfonyl)-4-[6-(morpholin-4-yl)pyridin-3-yl]-3-(propan-2-yl)-1H-pyrazolo[3,4-b]pyridine-6-carboxamide] | 593.12 | 464 | 386.92 | 780
CC(C)c1nn(C2CCCC2)c2nc(C(=O)NS(C)(=O)=O)cc(-c3ccc(N(C)C)nc3)c12 [Compound 55, 1-cyclopentyl-4-[6-(dimethylamino)pyridin-3-yl]-N-(methanesulfonyl)-3-(propan-2-yl)-1H-pyrazolo[3,4-b]pyridine-6-carboxamide] | 341.65 | 1050 | 126.75 | 1220
CCS(=O)(=O)NC(=O)c1cc(-c2ccc(N(C)C)nc2)c2c(C(C)C)nn(C3CCCC3)c2n1 [Compound 56, 1-cyclopentyl-4-[6-(dimethylamino)pyridin-3-yl]-N-(ethanesulfonyl)-3-(propan-2-yl)-1H-pyrazolo[3,4-b]pyridine-6-carboxamide] | 336.75 | 838 | 122.1 | 1180
Cc1nn(-c2cccc(C(F)(F)F)c2)c2nc(C(=O)NS(C)(=O)=O)cc(-c3ccc(N4CCOCC4)nc3)c12 [Compound 57, N-(methanesulfonyl)-3-methyl-4-[6-(morpholin-4-yl)pyridin-3-yl]-1-[3-(trifluoromethyl)phenyl]-1H-pyrazolo[3,4-b]pyridine-6-carboxamide] | 440 | 657 | 219.65 | 1020
CCS(=O)(=O)NC(=O)c1cc(-c2ccc(N3CCOCC3)nc2)c2c(C)nn(-c3cccc(C(F)(F)F)c3)c2n1 [Compound 58, N-(ethanesulfonyl)-3-methyl-4-[6-(morpholin-4-yl)pyridin-3-yl]-1-[3-(trifluoromethyl)phenyl]-1H-pyrazolo[3,4-b]pyridine-6-carboxamide] | 352.5 | 422 | 196.2 | 756
CC(C)c1nn(-c2cccc(N(C)C)c2)c2nc(C(=O)NS(C)(=O)=O)cc(-c3cnc(N4CCOCC4)nc3)c12 [Compound 59, 1-[3-(dimethylamino)phenyl]-N-(methanesulfonyl)-4-[2-(morpholin-4-yl)pyrimidin-5-yl]-3-(propan-2-yl)-1H-pyrazolo[3,4-b]pyridine-6-carboxamide] | 534.8 | 482 | 317.3 | 777
Cc1nn(-c2ccc(F)cc2F)c2nc(C(=O)NS(C)(=O)=O)cc(-c3ccc(N4CCOCC4)nc3)c12 [Compound 60, 1-(2,4-difluorophenyl)-N-(methanesulfonyl)-3-methyl-4-[6-(morpholin-4-yl)pyridin-3-yl]-1H-pyrazolo[3,4-b]pyridine-6-carboxamide] | 323.63 | 351 | 160.43 | 394
CCS(=O)(=O)NC(=O)c1cc(-c2ccc(N3CCOCC3)nc2)c2c(C)nn(-c3ccc(F)cc3F)c2n1 [Compound 61, 1-(2,4-difluorophenyl)-N-(ethanesulfonyl)-3-methyl-4-[6-(morpholin-4-yl)pyridin-3-yl]-1H-pyrazolo[3,4-b]pyridine-6-carboxamide] | 415.3 | 506 | 184.35 | 1000
CCS(=O)(=O)NC(=O)c1cc(-c2cnc(N3CCOCC3)nc2)c2c(C(C)C)nn(-c3cccc(N(C)C)c3)c2n1 [Compound 62, 1-[3-(dimethylamino)phenyl]-N-(ethanesulfonyl)-4-[2-(morpholin-4-yl)pyrimidin-5-yl]-3-(propan-2-yl)-1H-pyrazolo[3,4-b]pyridine-6-carboxamide] | 631.2 | 532 | 350.85 | 596
